Source: paper PMC3362725, “An open-label, phase 1 study evaluating safety, tolerability, and pharmacokinetics of linifanib (ABT-869) in Japanese patients with solid tumors” (Cancer Chemotherapy and Pharmacology, 2012)
Like-named read-outs stand apart in the source and are kept apart here.

How the values were obtained:
[1] = Pharmacokinetics of oral linifanib in plasma and urine, non-compartmental analysis, phase 1 study; assay type: in vivo, human (Japanese patients with solid tumors); conditions: for DN AUC24 / DN C max: dose-normalized; for AUC: read-out: AUC24
Experimental: Pharmacokinetic sampling occurred pre-dose and 0.5, 1, 2, 3, 4, 6, 8, and 24 h after single-dose linifanib on Cycle (C) 1D1, and pre-dose and 0.5, 1, 2, 3, 4, 6, and 8 h after multiple once-daily doses on C1D15. Urine was collected for 24-h after the C1D15 dose. Linifanib and its metabolite concentrations in plasma and urine were determined using a validated method based on triple quadruple tandem mass spectrometry with a lower limit of quantification of 1.0 ng/mL.
Pharmacokinetic parameter (defined in Table 3) concentrations were determined by non-compartmental analysis using WinNonlin Professional v.5.2 (Pharsight Corp., Cary, NC). […] Additional samples were collected at C3D1 (pre-dose) and every second cycle until study completion or until C15D1. Concentrations for samples at C3D1 and subsequent samples, and data from C1D1 to C1D15 were included in the nonlinear mixed effects models to explore covariates such as age, body weight, and gender (data not shown). Following single-dose linifanib at 0.25 mg/kg, a post hoc analysis compared the pharmacokinetics between the Japanese patients in the current study and non-Japanese patients in two phase 1 studies: Caucasian patients receiving […] linifanib (Abbott, unpublished) and the non-Japanese segment of Asian patients receiving 0.10–0.30 mg/kg linifanib.

[2] = test system: PlGF; assay: Plasma PlGF biomarker (Abbott Architect kits); assay type: in vivo, human (Japanese patients with solid tumors)
Experimental: Plasma for biomarker analysis was collected before linifanib administration on C1D1, C1D15, C2D1, and at the final visit. Concentration of PlGF was determined using Abbott Architect® kits. The relationship of PlGF levels to outcomes was assessed post hoc. To assess the relationship between PlGF induction and toxicity, patients were grouped into those requiring and not requiring dose interruption during the first 30 days of therapy. Median PlGF increase from baseline to C1D15 was compared as a function of toxicity group. To assess the relationship between PlGF induction and efficacy, patients were segregated into those with progressive disease (PD; N = 6) or stable disease (SD; N = 10) at C6, and PlGF increase from baseline to C1D15 was compared.

[3] = test system: HT1080 fibrosarcoma; parameters: method as in PMID 16648571; conditions: predicted based on preclinical murine HT1080 fibrosarcoma model; cited from earlier work
[4] = 0.05 mg/kg once daily, multiple dose (C1D15), mean ± SD, N 3
[5] = 0.05 mg/kg oral, single dose (C1D1), mean ± SD, N 3
[6] = 0.10 mg/kg once daily, multiple dose (C1D15), mean ± SD, N 5
[7] = 0.10 mg/kg oral, single dose (C1D1), mean ± SD, N 6
[8] = 0.20 mg/kg once daily, multiple dose (C1D15), mean ± SD, N 3
[9] = 0.20 mg/kg oral, single dose (C1D1), mean ± SD, N 3
[10] = 0.25 mg/kg once daily, multiple dose (C1D15), mean ± SD, N 5
[11] = 0.25 mg/kg oral, single dose (C1D1), mean ± SD, N 6
[12] = human, plasma, 0.1 mg/kg, 0.10 mg/kg oral, single dose (C1D1), mean ± SD, N 6
[13] = human, plasma, 0.2 mg/kg, 0.20 mg/kg oral, single dose (C1D1), mean ± SD, N 3
[14] = human, plasma, 0.05 mg/kg oral, single dose (C1D1), mean ± SD, N 3
[15] = human, plasma, 0.25 mg/kg oral, single dose (C1D1), mean ± SD, N 6

Structure (SMILES): Cc1ccc(F)c(NC(=O)Nc2ccc(-c3cccc4[nH]nc(N)c34)cc2)c1 [linifanib, N-(4-(3-amino-1H-indazol-4-yl)phenyl)-N’-(2-fluoro-5-methylphenyl)urea]
- R (accumulation ratio calculated as DN AUC24 between D15 and D1) ([1]; 0.05 mg/kg once daily, mean ± SD, N 3): 1.58 ± 0.34
- R (accumulation ratio calculated as DN AUC24 between D15 and D1) ([1]; 0.10 mg/kg once daily, mean ± SD, N 5): 1.46 ± 0.27
- R (accumulation ratio calculated as DN AUC24 between D15 and D1) ([1]; 0.20 mg/kg once daily, mean ± SD, N 3): 1.56 ± 0.08
- R (accumulation ratio calculated as DN AUC24 between D15 and D1) ([1]; 0.25 mg/kg once daily, mean ± SD, N 5): 1.46 ± 0.23
- dose proportionality of pharmacokinetics ([1]; 0.10–0.25 mg/kg, single and once-daily dosing): dose-proportional
- DN AUC24 [1, 4]: 0.77 ± 0.18 µg·h/mL/mg
- DN C max [1, 4]: 0.051 ± 0.007 µg/mL/mg
- DN AUC24 [1, 5]: 0.49 ± 0.08 µg·h/mL/mg
- DN C max [1, 5]: 0.036 ± 0.007 µg/mL/mg
- DN AUC24 [1, 6]: 0.50 ± 0.11 µg·h/mL/mg
- DN C max [1, 6]: 0.034 ± 0.008 µg/mL/mg
- DN AUC24 [1, 7]: 0.33 ± 0.04 µg·h/mL/mg
- DN C max [1, 7]: 0.026 ± 0.004 µg/mL/mg
- DN AUC24 [1, 8]: 0.52 ± 0.02 µg·h/mL/mg
- DN C max [1, 8]: 0.036 ± 0.003 µg/mL/mg
- DN AUC24 [1, 9]: 0.33 ± 0.01 µg·h/mL/mg
- DN C max [1, 9]: 0.028 ± 0.007 µg/mL/mg
- DN AUC24 [1, 10]: 0.37 ± 0.06 µg·h/mL/mg
- DN C max [1, 10]: 0.028 ± 0.002 µg/mL/mg
- DN AUC24 [1, 11]: 0.25 ± 0.02 µg·h/mL/mg
- DN C max [1, 11]: 0.019 ± 0.004 µg/mL/mg
- Cmax [1, 12]: 152 ± 36 ng/mL
- AUC [1, 12]: 1910 ± 380 ng·h/mL
- Tmax ([1]; human, plasma, 0.1 mg/kg, 0.10 mg/kg oral, single dose (C1D1), mean ± SD, N 6, read-out: T max): 1.67 ± 0.52 h
- Cmax [1, 13]: 305 ± 70 ng/mL
- AUC [1, 13]: 3600 ± 430 ng·h/mL
- Tmax ([1]; human, plasma, 0.2 mg/kg, 0.20 mg/kg oral, single dose (C1D1), mean ± SD, N 3, read-out: T max): 1.67 ± 0.57 h
- Cmax ([1]; human, plasma, oral, 0.1 mg/kg, 0.10 mg/kg once daily, multiple dose (C1D15), mean ± SD, N 5): 186 ± 64 ng/mL
- Tmax ([1]; human, plasma, oral, 0.1 mg/kg, 0.10 mg/kg once daily, multiple dose (C1D15), mean ± SD, N 5, read-out: T max): 2.2 ± 0.45 h
- AUC ([1]; human, plasma, oral, 0.1 mg/kg, 0.10 mg/kg once daily, multiple dose (C1D15), pre-dose concentration assumed equal to 24 h, mean ± SD, N 5): 2820 ± 1030 ng·h/mL
- Cmax ([1]; human, plasma, oral, 0.2 mg/kg, 0.20 mg/kg once daily, multiple dose (C1D15), mean ± SD, N 3): 390 ± 41 ng/mL
- Tmax ([1]; human, plasma, oral, 0.2 mg/kg, 0.20 mg/kg once daily, multiple dose (C1D15), mean ± SD, N 3, read-out: T max): 2.33 ± 0.58 h
- AUC ([1]; human, plasma, oral, 0.2 mg/kg, 0.20 mg/kg once daily, multiple dose (C1D15), pre-dose concentration assumed equal to 24 h, mean ± SD, N 3): 5630 ± 920 ng·h/mL
- half-life ([1]; human, plasma, oral, after repeated daily dosing, associated with accumulation ratio 1.5, read-out: effective half-life (converted)): 15 h
- Cmax ([1]; human, plasma, oral, 0.05 mg/kg once daily, multiple dose (C1D15), mean ± SD, N 3): 128 ± 17 ng/mL
- Tmax ([1]; human, plasma, oral, 0.05 mg/kg once daily, multiple dose (C1D15), mean ± SD, N 3, read-out: T max): 2.34 ± 0.57 h
- AUC ([1]; human, plasma, oral, 0.05 mg/kg once daily, multiple dose (C1D15), pre-dose concentration assumed equal to 24 h, mean ± SD, N 3): 1920 ± 450 ng·h/mL
- Cmax ([1]; human, plasma, oral, 0.25 mg/kg once daily, multiple dose (C1D15), mean ± SD, N 5): 418 ± 55 ng/mL
- Tmax ([1]; human, plasma, oral, 0.25 mg/kg once daily, multiple dose (C1D15), mean ± SD, N 5, read-out: T max): 2.2 ± 0.45 h
- AUC ([1]; human, plasma, oral, 0.25 mg/kg once daily, multiple dose (C1D15), pre-dose concentration assumed equal to 24 h, mean ± SD, N 5): 5460 ± 1160 ng·h/mL
- Cmax [1, 14]: 90 ± 18 ng/mL
- AUC [1, 14]: 1230 ± 210 ng·h/mL
- Tmax ([1]; human, plasma, 0.05 mg/kg oral, single dose (C1D1), mean ± SD, N 3, read-out: T max): 1.65 ± 0.56 h
- Cmax [1, 15]: 305 ± 68 ng/mL
- AUC [1, 15]: 3780 ± 480 ng·h/mL
- Tmax ([1]; human, plasma, 0.25 mg/kg oral, single dose (C1D1), mean ± SD, N 6, read-out: T max): 2.33 ± 1.03 h
- Tmax ([1]; human, plasma, across all dose levels (0.05–0.25 mg/kg oral), read-out: average T max): ~2 h
- induction of PlGF on C1D15 and C2D1 ([2]; 0.05–0.25 mg/kg once daily): dose-dependent
- median (±SD) increase in PlGF from baseline to C1D15 ([2]; 11 patients with dose interruption in first 30 days): 79.9 (±55.0) pg/mL
- PlGF change from baseline to C1D15 as a function of response classification ([2]; PD (n = 6) versus SD (n = 10) at C6, p = 0.7): No statistically significant difference
- median (±SD) increase in PlGF from baseline to C1D15 ([2]; five patients without dose interruption in first 30 days, ±16.2): 22.8 pg/mL
- PlGF concentration at the final visit ([2]; patients no longer on therapy): returned to near baseline levels
- efficacious plasma exposure at steady state [3]: ≥ 2700 ng·h/mL
